Columns and labels:
Assay in all cases: ITC direct binding
Design in all cases: species or system A. thaliana
MUTE_ACTLE162A_E163A = molecular target: T1, MUTE_ACTLE162A_E163A (Arabidopsis thaliana, UniProt Q9M8K6, E162A/E163A)
T1 construct: MUTE-ACTL (114-202); made in house; host or cells: E. coli BL21
Source text: (§1) A. thaliana SCRM (1-494), ΔNSPCH (98-364), MUTE (1-202), ΔNFAMA (190-414), MUTEΔC (1-114), MUTER133A_R134A, MUTEE162A_E163A, MUTER133A_R134A_E162A_E163A, SCRM-ACTL (405-494), MUTE-ACTL (114-202), SPCH-ACTL (285-364), FAMA-ACTL (306-414), MUTE_ACTLR133A_R134A, MUTE_ACTLE162A_E163A, MUTE_ACTLR133A_R134A_E162A_E163A were cloned into pGEX-4T-1 vector with an N-terminal GST tag and a thrombin cleavage sequence. For protein expression, the constructs were transformed into E. coli strain BL21. For each transformant, a single colony was selected and incubated in 10 ml LB liquid media. The overnight-incubated E. coli suspensions were transferred to 1 L LB medium and incubated at 37 °C for around 2 h until the OD600 reached 0.4–0.6. The isopropyl β-D-1-thiogalactopyranoside ([…] of final concentration) was added to the cultures and the strains were incubated at 22 °C for a further 18 h. GST-fused proteins were purified using glutathione agarose resin. The soluble portion of the cell lysate was loaded onto a GST-Sepharose column. Nonspecifically bound proteins were removed by washing the column with 20 mM Tris pH 8.0, 200 mM NaCl. The bound GST-fused protein was eluted with 10 mm glutathione and 20 mM Tris pH 8.0, 200 mM NaCl. The GST-fused proteins were exchanged with phosphate-buffered saline buffer, and then the solution was treated with 50 μg of thrombin for 10–12 h at 16 ^οC. The GST portion of the protein was cleaved during thrombin digestion, and then the whole solution was reloaded onto the glutathione S-transferase column to obtain pure protein. The purified proteins were further purified by gel filtration on a Superdex-200 (GE) column using fast protein liquid chromatography and phosphate buffer (pH 7.2) as the eluent. The purity of the protein was checked by SDS-PAGE. For detailed lists of oligo DNA and plasmid information, see Supplementary Tables 5, 6, respectively.
(§2) Binding of the small molecule Stomidazolone (3) to SCRM, MUTE, SPCH, FAMA, MUTEΔC, MUTE_ACTL, SCRM_ACTL, SPCH_ACTL and FAMA_ACTL, MUTER133A_R134A, MUTEE162A_E163A, MUTER133A_R134A_E162A_E163A, as well as SCRM binding to MUTE in the presence and absence of Stomidazolone (3) / AYSJ1059 (5) /AYSJ1061 (6) was characterized at 30 °C using a Malvern PEAQ-ITC microcalorimeter. All the protein samples were dialyzed overnight using PBS buffer containing 2% DMSO and 1 mM DTT. Stomidazolone was dissolved in PBS buffer containing 2% DMSO and 1 mM DTT. Titrations were performed by injecting 1 × 0.5-μL and 12 × 3-μL or 1 × 0.75-μL and 18 × 2-μL or 1 × 0.2-μL and 25 × 1.3-μL aliquots of 1 mM Stomidazolone / AYSJ1059 / AYSJ1061 to 5-30 μM of protein in PBS buffer pH 7.4, containing 2% DMSO and 1 mM DTT. All titrations were carried out at least twice. The raw data were corrected using buffer and protein controls and analyzed using the software supplied by the manufacturer. See Supplementary Table 3 for details.

SCRM_ACTL = molecular target: T2, SCRM_ACTL (Arabidopsis thaliana, UniProt Q9LSE2)
T2 construct: SCRM-ACTL (405-494); GST (N, cleaved yes); made in house; host or cells: E. coli BL21
T2 sequence (Q9LSE2 405-494): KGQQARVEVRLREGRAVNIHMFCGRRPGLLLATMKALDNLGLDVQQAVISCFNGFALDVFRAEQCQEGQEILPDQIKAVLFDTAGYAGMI
Source text: as §1, §2

MUTE_ACTLR133A_R134A = molecular target: T3, MUTE_ACTLR133A_R134A (Arabidopsis thaliana, UniProt Q9M8K6, R133A/R134A); conditions: MUTE_ACTL R133A_R134A
T3 construct: MUTE-ACTL (114-202); made in house; host or cells: E. coli BL21
Source text: as §1, §2

T1 sequence (Q9M8K6 114-202 E162A/E163A): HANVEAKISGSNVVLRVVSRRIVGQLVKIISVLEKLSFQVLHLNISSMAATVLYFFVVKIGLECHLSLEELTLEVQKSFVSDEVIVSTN
T3 sequence (Q9M8K6 114-202 R133A/R134A): as the sequence (Q9M8K6 114-202 E162A/E163A) above, with R20A, R21A, A49E, A50E counted along it

## O=C1C(c2ccccc2)=NC(NS(=O)(=O)c2ccccc2)(c2ccccc2)N1S(=O)(=O)c1ccccc1 (stereo not shown) [Stomidazolone]
MUTE_ACTLE162A_E163A; MUTE_ACTL E162A_E163A
  -T△S: 3.1 ± 0.3
  Kd: 85.5 ± 5.5 µM
  △G: -4.5 ± 0.2
  △H: -7.6 ± 0.5
MUTE_ACTLE162A_E163A; authors' response to reviewers, data of the original Fig. S3
  increase in the Kd value versus wild-type MUTE: ~5 fold
SCRM_ACTL
  -T△S: 6.1 ± 0.2
  Kd: 78.4 ± 5.1 µM
  △G: -3.2 ± 0.2
  △H: -9.3 ± 0.4
MUTE_ACTLR133A_R134A
  -T△S: 5.1 ± 0.2
  Kd: 127 ± 28.5 µM
  △G: -3.8 ± 0.2
  △H: -8.9 ± 0.4

From article PMC11500415, “Chemical inhibition of stomatal differentiation by perturbation of the master-regulatory bHLH heterodimer via an ACT-Like domain” (Nature Communications, 2024)
